We go through 30 molecules from patent US20020127605A1 (priority 2000, published 2002).

Usually IC50 stands for the concentration needed to halve the response being measured.

Chain of human recombinant CyPA (P62937 whole entry): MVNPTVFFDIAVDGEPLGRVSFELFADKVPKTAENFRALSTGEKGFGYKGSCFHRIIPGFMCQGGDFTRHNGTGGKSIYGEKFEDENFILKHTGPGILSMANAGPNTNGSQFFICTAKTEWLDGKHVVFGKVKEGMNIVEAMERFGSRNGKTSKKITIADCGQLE

The target in the first assay is human recombinant CyPA (Homo sapiens, UniProt P62937). The assay can be described thus: Semiautomated microtiter plate assay of rotamase activity inhibition. The assay is classed as biochemical. Conditions: 30 minute preincubation at 4° C., read-out: IC50 (rotamase inhibition, modified plate reader assay). The method, then:
Semiautomated Assay of Rotamase Activity Inhibition: Rotamase inhibition was determined using a semiautomated microtiter plate assay modification of the above described assay [see Küillertz et al., Clin. Chem. 44, 502-508 (1998)]. All dilutions of CyPA, peptide substrate, and chymotrypsin were made in 35 mM ice-cold HEPES buffer. Fifty μL of CyPA solution were added to 50 μL of peptide substrate solution (Phe-Pro-Phe p-nitroanilide, 0.16 mg/ml) in a glass microtiter well plate (the concentration of human recombinant CyP being adjusted so that the reaction rate is increased by a factor of 3 as compared to an uncatalyzed control reaction wherein the peptide substrate is degraded by chymotrypsin alone, in the absence of CyPA and test compound). Using a Beckman Multimek™ 96 automated 96-channel pipettor, 5 μL of test compound solution, or a DMSO blank, were added to each well for a 30 minute preincubation at 4° C. One hundred μL of chymotrypsin solution (1 mg/mL) were added to each well and the absorbance at 390 nm versus time was monitored for 9-10 minutes using a BioRad Ultramark plate reader maintained at 4° C. and the rate constants were determined from the absorbance versus time data files. The cyclophilin utilized was a human recombinant CyPA [Yoo et al., J. Mol. Biol., 269 (1997) 780-95].
IC50 values which were obtained for representative compounds using this modified plate reader assay of rotamase inhibition are given in the following Table II: […]
For the molecule `O=S(=O)(c1cc(Cl)cc(Cl)c1)N(c1cccc(N(S(=O)(=O)c2ccc3ccccc3c2)S(=O)(=O)c2ccc3ccccc3c2)c1)S(=O)(=O)c1cc(Cl)cc(Cl)c1` [Compound 9, (3-{Bis[(3,5-dichlorophenyl)sulfonyl]amino}phenyl)bis(2-naphthylsulfonyl)amine], the concentration for half-maximal inhibition (IC50) turned out to be 309 nM. The same measure, in the same setting: in the case of `O=C(CCCCCc1cccc(C(F)(F)F)c1)Nc1cccc(C(=O)NNC(=S)Nc2ccc(Cl)c(Cl)c2)c1` [Compound 32, 1-{[1-Aza-2-oxo-7-(3-trifluoromethylphenyl)]heytyl}-3-{[5-(3 4-dichlorophenyl)-1-oxo-2,3,5-triaza-4-thio]pentyl}benzene] it was 154 nM.

In the case of `O=C(CCCCc1ccccc1)Nc1cccc(S(=O)(=O)NC(=S)Nc2ccc(Cl)c(Cl)c2)c1` [Compound 34A], the IC50 is 4640 nM. Still for that read-out and setting: under `O=C(CCCCc1ccccc1)Nc1cccc(S(=O)(=O)NC(=O)Nc2ccc(Cl)c(Cl)c2)c1` [Compound 34B] stands 19100 nM; under `O=C(CCCCc1ccccc1)Nc1cccc(S(=O)(=O)NNC(=S)Nc2ccc(Cl)c(Cl)c2)c1` [Compound 35], 372 nM.

In the case of `O=C(CCCCCCc1ccccc1)Nc1cccc(C(=O)NNC(=S)Nc2ccc(Cl)c(Cl)c2)c1` [Compound 37, 1-{3-[(7-Phenyl)heptanoylamino]benzoyl}-4-(3,4-dichlorophenyl)thiosemicarbazide], the half-inhibitory concentration (IC50) was found to be 532 nM.

As for `O=C(CCCCc1cccs1)Nc1cccc(C(=O)NNC(=S)Nc2ccc(Cl)c(Cl)c2)c1` [Compound 38, 1-{[1-Aza-2-oxo-6-(thien-2-yl)]hexyl}-3-{[5-(3,4-dichlorophenyl)-1-oxo-2,3,5-triaza-4-thio]pentyl}benzene], the IC50 turned out to be 672 nM.

For a further assay, the target named is T1, recombinant rat CyPA-GST fusion protein (Rattus norvegicus, UniProt P10111).
T1 construct: made in house; host or cells: E. coli BL21
T1 sequence (P10111 2-164): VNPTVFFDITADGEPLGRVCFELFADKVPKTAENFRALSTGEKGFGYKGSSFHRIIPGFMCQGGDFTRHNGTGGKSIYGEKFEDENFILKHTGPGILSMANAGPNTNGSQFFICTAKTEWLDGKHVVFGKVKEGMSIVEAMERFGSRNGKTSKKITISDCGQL
The assay can be described thus: Rotamase (prolyl peptidyl cis-trans isomerase) inhibition, chymotrypsin-coupled cuvette assay.
Conditions: not given
The assay is classed as biochemical. The text has this:
A number of substrates for rotamase are known in the art or can be derived from those known. Typically, the substrate contacts a sample containing a protein with rotamase activity and the conversion of the substrate is detected after a period of time. The method for detecting conversion of the substrate will vary with the particular substrate chosen. One method has been termed the Ki test (See Harding, et al., Nature, 341:758-760 (1989). The cis-trans isomerization of an alanine-proline bond in a model substrate, N-succinyl-Ala-Ala-Pro-Phe-p-nitroanilide, is monitored spectrophotometrically in a chymotrypsin-coupled assay. The action of chymotrypsin releases p-nitroaniline from only the trans form of the substrate. The amount of p-nitroaniline can be monitored in a spectrophotometer, for example. Other methods of detecting the presence of p-nitroaniline can also be used. The inhibition of this reaction caused by different concentrations of inhibitor is determined and the data are analyzed as a change in first-order rate constant as a function of inhibitor concentration, which yields the Ki value.
The following were added to a plastic cuvette: […] of ice cold assay buffer (25 mM HEPES, pH 7.8, 100 mM NaCl), 10 μL of CyP A (2.5 μM in 10 mM Tris-Cl pH 7.5, 100 mM NaCl, 1 mM dithiothreitol), 25 μL of chymotrypsin (50 mg/ml in 1 mM HCl), and 10 μL of test compound, at various concentrations, in dimethyl sulfoxide. The reaction was initiated by the addition of 5 μL of substrate (succinyl-Ala-Phe-Pro-Phe-para-nitroanilide, 5 mg/mL in 470 mM LiCl in trifluoroethanol). The absorbance at 390 nm versus time was monitored for 90 seconds using a spectrophotometer and the rate constants were determined from the absorbance versus time data files.
The IC50 values that were obtained for representative compounds in the following Table I refer to the concentration that inhibits 50% of the rotamase activity in a sample. […] The Cyclophilin utilized was a recombinant rat CyPA-GST fusion protein: CypA was amplified from rat brain cDNA using standard PCR methods, primed with the following sequences: 5′ CCCCCCGGGAGTCAACCCCACCGTGTTCTTCGA 3′ and 5′ GGAGATCTAGAGTTGTCCACAGTCGGAGATGGT 3′. The resulting fragment (573 base pairs) was cloned into pCRII and amplified. The CyP sequence was cut out with Smal and EcoRl and cloned into the Smal/EcoRl sites in pGEX2TK (Pharmacia). This plasmid was transformed into BL21 E. coli cells for expression of the GST-CyPA fusion protein.
Take `Cc1ccc(S(=O)(=O)N(c2cccc(NC(=O)Nc3cc(Cl)cc(Cl)c3)c2)S(=O)(=O)c2ccc(C)cc2)cc1` [Compound 2]: the IC50 was determined as 149 nM.

Consider `COc1ccc(S(=O)(=O)N(c2cccc(NC(=O)c3cc(Cl)cc(Cl)c3)c2)S(=O)(=O)c2ccc(C)cc2)cc1` [Compound 3], for which the IC50 was 955 nM. On to `O=C(Nc1cccc(N(S(=O)(=O)c2cc(Cl)cc(Cl)c2)S(=O)(=O)c2cc(Cl)cc(Cl)c2)c1)Nc1c(Cl)cccc1Cl` [Compound 6], for which the IC50 turned out to be 990 nM.

Turning to `O=C(Nc1cc(Cl)cc(Cl)c1)Nc1cccc(N(S(=O)(=O)c2cc(Cl)cc(Cl)c2)S(=O)(=O)c2cc(Cl)cc(Cl)c2)c1` [Compound 7], the IC50 came to 1220 nM.

For the molecule `O=C(Nc1cc(Cl)cc(Cl)c1)[C@@H]1CC[C@H](NC(=S)Nc2cc(Cl)cc(Cl)c2)C1` [Compound 17], the IC50 was 854 nM.

With `O=C(Nc1cccc(Oc2ccccc2)c1)Nc1cc(C(F)(F)F)cc(C(F)(F)F)c1` [Compound 26], the IC50 was found to be 1560 nM. As for `O=C(Nc1cc(Cl)cc(Cl)c1)Nc1ccccc1NC(=O)Nc1cc(Cl)cc(Cl)c1` [Compound 27], the IC50 turned out to be 667 nM.

Regarding `O=C(Nc1ccccc1NC(=O)c1ccc(I)cc1)c1ccc(I)cc1` [Compound 29], the IC50 was found to be 940 nM.

The same assay, now with this note: recombinant rat CyPA-GST fusion protein; values without asterisk; read-out: IC50 (rotamase activity).
For the molecule `COc1ccc(S(=O)(=O)N(c2cccc(NC(=O)Nc3cc(Cl)cc(Cl)c3)c2)S(=O)(=O)c2ccc(C)cc2)cc1` [Compound 1, [(3,5-dichlorophenyl)amino]-N-(3-{[(4-methoxylihenyl)sulfonyl][(4-methylphenyl)sulfonyl]amino}phenyl)formamide], the IC50 came out at 162 nM. Regarding `COc1ccc(S(=O)(=O)N(c2cccc(N(S(=O)(=O)c3cc(Cl)cc(Cl)c3)S(=O)(=O)c3cc(Cl)cc(Cl)c3)c2)S(=O)(=O)c2ccc(C)cc2)cc1` [Compound 4, (3-{bis[(3,5-dichlorophenyl)sulfonyl]amino}phenyl)[(4-methoxy-phenyl)sulfonyl][(4-methylphenyl)sulfonyl]amine], the IC50 worked out at 995 nM. Still for that read-out and setting: in the case of `COc1ccc(S(=O)(=O)N(c2cccc(N(S(=O)(=O)c3cc(Cl)cc(Cl)c3)S(=O)(=O)c3cc(Cl)cc(Cl)c3)c2)S(=O)(=O)c2ccc(OC)cc2)cc1` [Compound 10, (3-{Bis[(3,5-dichlorolphenyl)sulfonyl]amino}phenyl)bis[(4-methoxyphenyl)sulfonyl]amine] it was 732 nM; in that of `FC(F)(F)c1cc(NC(=S)NC2CCCCC2NC(=S)Nc2cc(C(F)(F)F)cc(C(F)(F)F)c2)cc(C(F)(F)F)c1` (stereo not drawn) [Compound 12, {[3,5-bis(trifluoromethyl)phenyl]amino}({2-[({[3,5-bis(trifluoromethyl)phenyl]amino}thioxomethyl)amino]cyclohexyl}amino)methane-1-thione], 767 nM. As to `S=C(Nc1ccc(Cl)c(Cl)c1)NC1CCCCC1NC(=S)Nc1ccc(Cl)c(Cl)c1` (stereo not drawn) [Compound 14, [(3,4-dichlorophenyl)amino]{[2-({[(3,4-dichlorophenyl)amino]thioxomethyl}amino)cyclohexyl]amino}methane-1-thione], the IC50 came out at 786 nM.

For the molecule `S=C(Nc1cc(Cl)cc(Cl)c1)NC1CCCCC1NC(=S)Nc1cc(Cl)cc(Cl)c1` (stereo not drawn) [Compound 15, [(3,5-dichlorophenyl)amino]{[2-({[(3,5-dichlorophenyl)amino]thioxomethyl}amino)cyclohexyl]amino}methane-1-thione], the IC50 worked out at 610 nM.

As to `O=C(Nc1cc(Cl)cc(Cl)c1)N[C@H]1CC[C@@H](NC(=O)Nc2cc(Cl)cc(Cl)c2)CC1` [Compound 16, cis-[(3,5-Dichlorophenyl)amino]-N-(4-{[(3,5-dichlorolphenyl)amino]carbonylamino}cyclohexyl)formamide], the IC50 was 1530 nM. Take `O=C(Nc1cc(Cl)cc(Cl)c1)[C@@H]1C=C[C@H](NC(=S)Nc2cc(Cl)cc(Cl)c2)C1` [Compound 18, (1S,3R)-N-(3,5-dichlorophenyl)[4-({[(3,5-dichlorolphenyl)amino]thioxomethyl}amino)cyclopent-2-enyl]formamide]: the IC50 worked out at 901 nM. Still for that read-out and setting: in the case of `O=C(Nc1cc(Cl)cc(Cl)c1)[C@H]1CC[C@@H](NC(=S)Nc2cc(Cl)cc(Cl)c2)C1` [Compound 19] it was 754 nM; in that of `S=C(Nc1cc(Cl)cc(Cl)c1)Nc1cccc(C=C(c2ccc(Cl)cc2)c2ccc(Cl)cc2)c1` [Compound 20], 188 nM; in that of `O=C(NNC(=S)Nc1cc(Cl)cc(Cl)c1)c1cccc(OCc2cc(C(F)(F)F)cc(C(F)(F)F)c2)c1` [Compound 23], 895 nM. As to `O=C(COc1cccc(NC(=O)c2cc(Cl)cc(Cl)c2)c1)Nc1cc(Cl)cc(Cl)c1` [Compound 24, N-(3,5-dichlorophenyl)-2-{3-[(3,5-dichlorolphenyl)carbonylamino]phenoxy}ethanamide], the IC50 is 909 nM.

As for `O=C(Nc1cccc(OS(=O)(=O)c2c(F)c(F)c(F)c(F)c2F)c1)c1cc(Cl)cc(Cl)c1` [Compound 25, 3-[(3,5-dichlorophenyl)carbonylamino]phenyl 2,3,4,5,6-penta-fluorobenzenesulfonate], the IC50 worked out at 964 nM.

As for `S=C(Nc1cc(Cl)cc(Cl)c1)Nc1ccccc1NC(=S)Nc1cc(Cl)cc(Cl)c1` [Compound 28, [(3,5-dichlorophenyl)amino]{[2-({[(3,5-dichlorophenyl)amino]thioxomethyl}amino)phenyl]amino}methane-1-thione], the IC50 was found to be 1100 nM. Still for that read-out and setting: in the case of “bis[(3,5-dichlorophenyl)sulfonyl](3-{[(naphthylamino) thioxomethyl]amino}phenyl)amine [Compound 5]” it was 783 nM.
